Experimental data: US20120028917A1, “Use Of N-(4-((3-(2-Amino-4-Pyrimidinyl)-2-Pyridinyl)Oxy)Phenyl)-4-(4-Methyl-2-Thienyl)-1-Phthalazinamine In The Treatment Of Antimitotic Agent Resistant Cancer” (Amgen Inc., priority 2009, published 2012)
pEC50: −log10 of the molar value.

Key:
Assay in all cases: Antiproliferative assay (ArrayScan VTi)
Type in all cases: cell-based
[1] = system: HCT 116_JH_p21−/−; settings: Homo sapiens; HCT 116_JH_p21−/− (Colon); 24 h treatment, then 48 h without compound
Description: (§1) Tumor cells were seeded in a Packard View 96-well plate in 100 μL of appropriate complete media at a density of 3000 or 5000 cells/well depending on the cell line growth kinetics (broadly defined as slow vs. fast). All dilutions were performed using Biomek FX workstation. The next day cells were treated with AMG 900 (11-point dose range 0.156 to 0.0003 μM) with a final DMSO concentration of 0.12% in media. After 24 hours, the media containing compound was removed and the cells were washed with complete media. The cells were then incubated in 100 μL of fresh complete media (without compound) for 48 hours. After 48 hours, the cells were fixed by adding 100 μL of fixation buffer to 100 μL of complete media. The cells were incubated at room temperature for 10 minutes. The fixation buffer was aspirated and the cells were then permeabilized in 100 μL wash buffer for 30 minutes at room temperature followed by the addition of 100 μL of DNA stain buffer and incubated at room temperature for 30 minutes in the dark. Next, the cells were washed with 100 μL of wash buffer and stored in 100 μL 1×PBS at 4 degrees Celsius until analysis. Cellular data was attained by scanning the 96-well plates on an ArrayScan VTi imaging system (Cellomics). Quantification of individual cell nuclear area and intensity was performed based on Hoechst 33342 DNA dye fluorescence. A threshold on the nuclear area based on the DMSO-treated control well was set to quantify the number of normal size nuclei from nuclear debris and polyploidy cells. This threshold value was applied to enumerate the number of normal nuclei in six image fields/well using a magnification of 10×. The dose-concentration curves and EC50 values were calculated using a 4-parameter equation.

[2] = system: NCI-H460; settings: Homo sapiens; NCI-H460 (Lung); 24 h treatment, then 48 h without compound
Description: as §1

[3] = system: PC3; settings: Homo sapiens, PC-3; PC3 (Prostate); 24 h treatment, then 48 h without compound
Description: as §1

[4] = system: CAL51; settings: Homo sapiens, CAL-51; CAL51 (Breast); 24 h treatment, then 48 h without compound
Description: as §1

[5] = system: DU145; settings: Homo sapiens, DU-145; DU145 (Prostate); 24 h treatment, then 48 h without compound
Description: as §1

[6] = system: SK-HEP-1; settings: Homo sapiens, SK-HEP1; SK-HEP-1 (Liver); 24 h treatment, then 48 h without compound
Description: as §1

[7] = system: MES-SA Dx5; settings: Homo sapiens; MES-SA Dx5* (Uterine), paclitaxel-resistant; 24 h treatment, then 48 h without compound
Description: as §1

[8] = system: HCT15; settings: Homo sapiens, HCT-15; HCT15* (Colon), paclitaxel-resistant; 24 h treatment, then 48 h without compound
Description: as §1

[9] = system: A498; settings: Homo sapiens; A498 (Kidney); 24 h treatment, then 48 h without compound
Description: as §1

[10] = system: A549; settings: Homo sapiens; A549 (Lung); 24 h treatment, then 48 h without compound
Description: as §1

[11] = system: MCF7-p53+; settings: Homo sapiens; MCF7-p53+ (Breast); 24 h treatment, then 48 h without compound
Description: as §1

[12] = system: 769P; settings: Homo sapiens; 769P* (Kidney), paclitaxel-resistant; 24 h treatment, then 48 h without compound
Description: as §1

[13] = system: HT29; settings: Homo sapiens, HT-29; HT29 (Colon); 24 h treatment, then 48 h without compound
Description: as §1

[14] = system: BT549; settings: Homo sapiens, BT-549; BT549 (Breast); 24 h treatment, then 48 h without compound
Description: as §1

[15] = system: CAKI-1; settings: Homo sapiens; CAKI-1 (Kidney); 24 h treatment, then 48 h without compound
Description: as §1

[16] = system: SW480; settings: Homo sapiens; SW480 (Colon); 24 h treatment, then 48 h without compound
Description: as §1

[17] = system: HOP-92; settings: Homo sapiens; HOP-92 (Lung); 24 h treatment, then 48 h without compound
Description: as §1

[18] = system: MDA-MB-231; settings: Homo sapiens; MDA-MB-231 (Breast); 24 h treatment, then 48 h without compound
Description: as §1

[19] = system: HCT 116_JH_p21+/+; settings: Homo sapiens; HCT 116_JH_p21+/+ (Colon); 24 h treatment, then 48 h without compound
Description: as §1

[20] = system: SK-OV-3; settings: Homo sapiens; SK-OV-3 (Ovarian); 24 h treatment, then 48 h without compound
Description: as §1

[21] = system: SK-MEL-2; settings: Homo sapiens; SK-MEL-2 (Skin); 24 h treatment, then 48 h without compound
Description: as §1

For `Cc1csc(-c2nnc(Nc3ccc(Oc4ncccc4-c4ccnc(N)n4)cc3)c3ccccc23)c1` [AMG 900, N-(4-((3-(2-amino-4-pyrimidinyl)-2-pyridinyl)oxy)phenyl)-4-(4-methyl-2-thienyl)-1-phthalazinamine], the pEC50 [1] was 9.00, the pEC50 [2] was 9.00 and the pEC50 [3] was 8.70. The pEC50 [4] was 8.70, the pEC50 [5] was 8.70 and the pEC50 [6] was 9.00. It also gave a pEC50 [7] of 9.00, a pEC50 [8] of 8.70 and a pEC50 [9] of 9.00. It also gave a pEC50 [10] of 9.00, a pEC50 [11] of 9.00 and a pEC50 [12] of 8.70. It also gave a pEC50 [13] of 8.30, a pEC50 [14] of 8.40 and a pEC50 [15] of 9.00. It also gave a pEC50 [16] of 8.70, a pEC50 [17] of 8.70 and a pEC50 [18] of 8.70. For the same compound, the pEC50 [19] was 9.00, the pEC50 [20] was 8.70 and the pEC50 [21] was 8.70.
